Values quoted from earlier work in patent US7265142B2, “Materials and methods for the treatment of hypertension and angina” (ARYx Therapeutics, priority 2001, dated 2007).

Details: background statement; patients switched from mibefradil to dihydropyridine CCBs

half-life: up to 24 hours
SMILES: COCC(=O)O[C@]1(CCN(C)CCCc2nc3ccccc3[nH]2)CCc2cc(F)ccc2[C@@H]1C(C)C [mibefradil]
